# From paper PMC2680982, “The cAMP-Dependent Protein Kinase Inhibitor H-89 Attenuates the Bioluminescence Signal Produced by Renilla Luciferase” (PLoS ONE, 2009)
# pIC50: −log10 of the molar value.
# Biological target: T1, RLuc8 (Renilla luciferase variant) (Renilla reniformis, UniProt P27652, A55T/C124A/S130A/K136R/A143M/M185V/M253L/S287L)
# T1 construct: RLuc8 in pRSETB, purified on Ni-NTA from E. coli
# T1 sequence (P27652 1-311 A55T/C124A/S130A/K136R/A143M/M185V/M253L/S287L): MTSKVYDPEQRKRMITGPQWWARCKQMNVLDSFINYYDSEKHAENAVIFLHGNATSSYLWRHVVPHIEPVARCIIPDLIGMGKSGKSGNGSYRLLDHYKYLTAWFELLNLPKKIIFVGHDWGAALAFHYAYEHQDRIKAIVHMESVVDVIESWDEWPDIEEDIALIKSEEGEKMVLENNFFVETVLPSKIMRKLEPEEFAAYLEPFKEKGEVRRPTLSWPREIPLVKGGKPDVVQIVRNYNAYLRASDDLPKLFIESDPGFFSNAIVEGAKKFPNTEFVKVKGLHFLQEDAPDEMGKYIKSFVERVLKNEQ
# Test: bioluminescence inhibition of […] purified RLuc8 with coelenterazine-h titration
# Type: biochemical
smiles,measurement,value
"O=S(=O)(NCCNC/C=C/c1ccc(Br)cc1)c1cccc2cnccc12 [H-89, N-[2-(p-bromocinnamylamino)ethyl]-5-isoquinolinesulfonamide]",pIC50,4.68
